In patent publication US9877957B2, “Tetrahydroisoquinoline derivatives useful as inhibitors of diacylglyceride O-acyltransferase 2” (Merck Sharp & Dohme Corp., priority 2014, dated 2018):

Molecular target: hDGAT2 (Homo sapiens (Human), UniProt Q96PD7)
Experiment: DGAT2 Enzymatic Activity Assay (triolein formation, LC/MS/MS)
Format: biochemical
Details: Sf-9 membrane prep expressing hDGAT2; 25 μM diolein, 10 μM oleoyl-CoA; room temperature; read-out: IC50 values for inhibition of DGAT2
Experimental: In Vitro DGAT2 ASSAYS and Determination of IC50 Values for DGAT2 Inhibitors
Insect Cell Expression and Membrane Preparation
Sf-9 insect cells were maintained in Grace's insect cell culture medium with 10% heated-inactivated fetal bovine serum, 1% Pluronic F-68 and 0.14 μg/ml Kanamycine sulfate in Erlenmeyer flasks at 28° C. in a shaker incubator. After infection with untagged hDGAT2 baculovirus at multiplicity of infection (MOI) 0.1 for 48 hours, cells were harvested. Cell pellets were suspended in buffer containing 10 mM Tris-HCl (pH 7.5), 1 mM EDTA (pH 8.0), 250 mM sucrose and Complete Protease Inhibitor Cocktail (Roche Diagnostics Corp., Indianapolis, Ill.), and sonicated on ice. Membrane fractions were isolated by ultracentrifugation (100,000× g pellet), resuspended in the same buffer, and frozen (−80° C.) for later use. The protein concentration was determined with the BCA Protein Assay kit (Pierce Biotechnology Inc., Rockford, Ill.). Expression of protein levels was analyzed by immunoblotting with goat polyclonal DGAT2 antibody C-15 and donkey anti-goat IgG HRP (Santa Cruz Biotechnology, Inc., Santa Cruz, Calif.) followed by detection with ECL reagent (GE Healthcare, Piscataway, N.J.).
LC/MS/MS analyses were performed using Thermal Fisher's LX4-TSQ Vantage system. This system consists of an Agilent binary high-performance liquid chromatography (HPLC) pumps and a TSQ Vantage triple quadrupole MS/MS instrument. For each sample, 2 μL samples from the top organic layer of in-plate liquid-liquid extraction were injected onto a Thermo Betabasic C4 column (2.1 mm×20 mm, 5 μm particle size). The samples were then eluted using the following conditions; mobile phase: methanol/water with 0.1% ammonium format=92/8 (v/v), flow rate: 1 mL/min, temperature: 25° C. Data was acquired in positive mode using a heated electrospray ionization (HESI) interface. The operational parameters for the TSQ Vantage MS/MS instrument were a spray voltage of 3000 V, capillary temperature of 280° C., vaporizer temperature 400° C., shealth gas 60 arbitrary unit, Aux gas 40 arbitrary units, S-lens 113 and collision gas 0.16 Pascals. […] (SRM) chromatograms of triolein (Q1: 902.9>Q3:602.3) and internal standard (Q1: 902.9>Q3:602.3) were collected for 40 sec. The peak area was integrated by Xcalibur Quan software. The ratio between the triolein generated in the reaction and spiked in internal standard were used to generate percentage inhibition and IC50 values. Compound percentage inhibition was calculated by the following formula: Inhibition %=1−[(compound response−low control)/(high control−low control)]×100%. Potent compounds were titrated and IC50 were calculated by 4 parameter sigmoidal curve fitting formula.
DGAT2 Enzymatic Activity Assay
DGAT2 activity was determined by measuring the amount of enzymatic product triolein (1,2,3-Tri(cis-9-octadecenoyl)glycerol) using the membrane prep mentioned above. The assay was carried out in deep well 384 plates in a final volume of 40 μL at room temperature. The assay mixture contained the following: assay buffer (100 mM Tris·Cl, pH 7.0, 20 mM MgCl2, 5% ethanol), 25 μM of diolein, 10 μM of oleoyl-CoA and 10 ng/μL of DGAT2 membrane.

Chain of hDGAT2 (Q96PD7 whole entry): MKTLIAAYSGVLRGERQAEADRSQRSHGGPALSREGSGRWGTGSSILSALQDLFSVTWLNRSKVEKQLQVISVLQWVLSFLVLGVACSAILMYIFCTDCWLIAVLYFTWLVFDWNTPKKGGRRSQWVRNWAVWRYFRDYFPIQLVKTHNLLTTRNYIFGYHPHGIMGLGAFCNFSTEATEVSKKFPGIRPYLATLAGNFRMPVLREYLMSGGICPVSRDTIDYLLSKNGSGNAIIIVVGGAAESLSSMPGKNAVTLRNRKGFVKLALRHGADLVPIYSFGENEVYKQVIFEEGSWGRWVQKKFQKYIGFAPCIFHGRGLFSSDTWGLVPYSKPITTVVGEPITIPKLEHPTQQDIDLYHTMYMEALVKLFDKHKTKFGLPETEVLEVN

SMILES	IC50
CC(C)(C)NC(=O)N1CCc2c(-c3cccc(C(F)(F)F)c3)ccc(C(=O)N[C@@H](CO)c3ccc(C(F)(F)F)nc3)c2C1 (racemic) [Example 21, (R/S)-N^2-(tert-butyl)-N^8-(2-hydroxy-1-(6-(trifluoromethyl)pyridin-3-yl)ethyl)-5-(3-(trifluoromethyl)phenyl)-3,4-dihydroisoquinoline-2,8(1H)-dicarboxamide]	214 nM
CC(C)(C)NC(=O)N1CCc2c(-c3cccc(C(F)(F)F)c3)ccc(C(=O)NC[C@H]3C[C@@H]3c3ccccc3)c2C1 (relative stereo) [Example 69, N^2-(tert-butyl)-N^8-(((trans)-2-phenylcyclopropyl)methyl)-5-(3-(trifluoromethyl)phenyl)-3,4-dihydroisoquinoline-2,8(1H)-dicarboxamide]	528 nM
CC(C)(C)NC(=O)N1CCc2c(-c3cccc(OC(F)(F)F)c3)ccc(CNC(=O)c3cc(C(F)(F)F)n[nH]3)c2C1 [Example 2, N-(tert-butyl)-5-(3-(trifluoromethoxy)phenyl)-8-((3-(trifluoromethyl)-1H-pyrazole-5-carboxamido)methyl)-3,4-dihydroisoquinoline-2(1H)-carboxamide]	104 nM
COc1cccc(-c2ccc(CNC(=O)c3cc(C(F)(F)F)n[nH]3)c3c2CCN(C(=O)NC(C)(C)C)C3)c1 [Example 4, N-(tert-butyl)-5-(3-methoxyphenyl)-8-((3-(trifluoromethyl)-1H-pyrazole-5-carboxamido)methyl)-3,4-dihydroisoquinoline-2(1H)-carboxamide]	41.4 nM
COc1cccc(-c2ccc(CNC(=O)c3nccc4ccccc34)c3c2CCN(C(=O)NC(C)(C)C)C3)c1 [Example 5, N-((2-(tert-butylcarbamoyl)-5-(3-methoxyphenyl)-1,2,3,4-tetrahydroisoquinolin-8-yl)methyl)isoquinoline-1-carboxamide]	135 nM
CC(C)(C)NC(=O)N1CCc2c(-c3cccc(C(F)(F)F)c3)ccc(C(=O)NCCc3nc4cc(Cl)ccc4[nH]3)c2C1 [Example 6, N^2-(tert-butyl)-N^8-(2-(5-chloro-1H-benzo[d]imidazol-2-yl)ethyl)-5-(3-(trifluoromethyl)phenyl)-3,4-dihydroisoquinoline-2,8(1H)-dicarboxamide]	11.9 nM
CC(C)(C)NC(=O)N1CCc2c(-c3cccc(C(F)(F)F)c3)ccc(C(=O)NCCc3nc4cc(Cl)c(Cl)cc4[nH]3)c2C1 [Example 7, N^2-(tert-butyl)-N^8-(2-(5,6-dichloro-1H-benzo[d]imidazol-2-yl)ethyl)-5-(3-(trifluoromethyl)phenyl)-3,4-dihydroisoquinoline-2,8(1H)-dicarboxamide]	15.9 nM
CC(C)(C)NC(=O)N1CCc2c(-c3cccc(C(F)(F)F)c3)ccc(C(=O)NCCc3nc4ccccc4[nH]3)c2C1 [Example 9, N^8-(2-(1H-benzo[d]imidazol-2-yl)ethyl)-N^2-(tert-butyl)-5-(3-(trifluoromethyl)phenyl)-3,4-dihydroisoquinoline-2,8(1H)-dicarboxamide]	51.1 nM
CC(C)(C)NC(=O)N1CCc2c(-c3cccc(C(F)(F)F)c3)ccc(C(=O)NCc3cncc4ccccc34)c2C1 [Example 10, N^2-(tert-butyl)-N^8-(isoquinolin-4-ylmethyl)-5-(3-(trifluoromethyl)phenyl)-3,4-dihydroisoquinoline-2,8(1H)-dicarboxamide]	66.9 nM
CC(C)(C)NC(=O)N1CCc2c(-c3cccc(C(F)(F)F)c3)ccc(C(=O)NCc3cccc4cnccc34)c2C1 [Example 12, N^2-(tert-butyl)-N^8-(isoquinolin-5-ylmethyl)-5-(3-(trifluoromethyl)phenyl)-3,4-dihydroisoquinoline-2,8(1H)-dicarboxamide]	68.6 nM
COc1ccc2nc(CCNC(=O)c3ccc(-c4cccc(OC(F)(F)F)c4)c4c3CN(C(=O)NC(C)(C)C)CC4)[nH]c2c1 [Example 13, N^2-(tert-butyl)-N^8-(2-(6-methoxy-1H-benzo[d]imidazol-2-yl)ethyl)-5-(3-(trifluoromethoxy)phenyl)-3,4-dihydroisoquinoline-2,8(1H)-dicarboxamide]	68.9 nM
Cc1ccc2[nH]c(CCNC(=O)c3ccc(-c4cccc(C(F)(F)F)c4)c4c3CN(C(=O)NC(C)(C)C)CC4)nc2c1 [Example 14, N^2-(tert-butyl)-N^8-(2-(5-methyl-1H-benzo[d]imidazol-2-yl)ethyl)-5-(3-(trifluoromethyl)phenyl)-3,4-dihydroisoquinoline-2,8(1H)-dicarboxamide]	103 nM
Cc1nc2ccccn2c1CNC(=O)c1ccc(-c2cccc(C(F)(F)F)c2)c2c1CN(C(=O)NC(C)(C)C)CC2 [Example 15, N^2-(tert-butyl)-N^8-((2-methylimidazo[1,2-a]pyridin-3-yl)methyl)-5-(3-(trifluoromethyl)phenyl)-3,4-dihydroisoquinoline-2,8(1H)-dicarboxamide]	120 nM
CC(C)(C)NC(=O)N1CCc2c(-c3cccc(C(F)(F)F)c3)ccc(C(=O)NCc3nccc4ccccc34)c2C1 [Example 19, N^2-(tert-butyl)-N^8-(isoquinolin-1-ylmethyl)-5-(3-(trifluoromethyl)phenyl)-3,4-dihydroisoquinoline-2,8(1H)-dicarboxamide]	197 nM

Continued, values first:

IC50	SMILES
1020 nM	CC(C)(C)NC(=O)N1CCc2c(-c3cccc(C(F)(F)F)c3)ccc(C(=O)N[C@H]3C[C@@H]3c3ccccc3)c2C1 (relative stereo) [Example 65, N^2-(tert-butyl)-N^8-((trans)-2-phenylcyclopropyl)-5-(3-(trifluoromethyl)phenyl)-3,4-dihydroisoquinoline-2,8(1H)-dicarboxamide]
1.75 nM	COC(=O)c1cccc(-c2ccc(CNC(=O)C3CCN(c4ccc(C(F)(F)F)cc4)CC3)c3c2CCN(C(=O)NC(C)(C)C)C3)c1 [Example 1, methyl 3-(2-(tert-butylcarbamoyl)-8-((1-(4-(trifluoromethyl)phenyl)piperidine-4-carboxamido)methyl)-1,2,3,4-tetrahydroisoquinolin-5-yl)benzoate]
17 nM	COC(=O)c1cccc(-c2ccc(CNC(=O)c3cc(C(C)(C)C)nn3C)c3c2CCN(C(=O)NC(C)(C)C)C3)c1 [Example 3, methyl 3-(8-((3-(tert-butyl)-1-methyl-1H-pyrazole-5-carboxamido)methyl)-2-(tert-butylcarbamoyl)-1,2,3,4-tetrahydroisoquinolin-5-yl)benzoate]
32.9 nM	CC(C)(C)NC(=O)N1CCc2c(-c3cccc(C(F)(F)F)c3)ccc(C(=O)NCCc3nc4ccc(F)cc4[nH]3)c2C1 [Example 8, N^2-(tert-butyl)-N^8-(2-(5-fluoro-1H-benzo[d]imidazol-2-yl)ethyl)-5-(3-(trifluoromethyl)phenyl)-3,4-dihydroisoquinoline-2,8(1H)-dicarboxamide]
67.6 nM	CC(C)(C)NC(=O)N1CCc2c(-c3cccc(C(F)(F)F)c3)ccc(C(=O)NCc3cccc4cccnc34)c2C1 [Example 11]
126 nM	CC(C)(C)NC(=O)N1CCc2c(-c3cccc(C(F)(F)F)c3)ccc(C(=O)NCc3cccc4ncccc34)c2C1 [Example 16, N^2-(tert-butyl)-N^8-(quinolin-5-ylmethyl)-5-(3-(trifluoromethyl)phenyl)-3,4-dihydroisoquinoline-2,8(1H)-dicarboxamide]
132 nM	CC(C)(C)NC(=O)N1CCc2c(-c3cccc(C(F)(F)F)c3)ccc(C(=O)NCc3ccc4nonc4c3)c2C1 [Example 17, N^8-(benzo[c][1,2,5]oxadiazol-5-ylmethyl)-N^2-(tert-butyl)-5-(3-(trifluoromethyl)phenyl)-3,4-dihydroisoquinoline-2,8(1H)-dicarboxamide]
133 nM	CC(C)(C)NC(=O)N1CCc2c(-c3cccc(C(F)(F)F)c3)ccc(C(=O)NCCc3cn4ccsc4n3)c2C1 [Example 18, N^2-(tert-butyl)-N^8-(2-(imidazo[2,1-b]thiazol-6-yl)ethyl)-5-(3-(trifluoromethyl)phenyl)-3,4-dihydroisoquinoline-2,8(1H)-dicarboxamide]
